# Values quoted from earlier work in patent US20250152503A1, “IMPLANTABLE DEVICES FOR THE SUSTAINED DELIVERY OF AN OPIOID ANTAGONIST AND METHODS FOR TREATING INFLAMMATORY, NEUROINFLAMMATORY AND METABOLIC DISORDERS” (Delpor, Inc., priority 2022, published 2025).
# Experiments:
# [1] = biological target: Toll-like receptor 4 (TLR4) (Homo sapiens, UniProt O00206+Q9Y6Y9)
# [2] = 25° C.
# [3] = oral, typical dose 50 mg/day
# Chain of Toll-like receptor 4 (TLR4) (O00206 24-839, species assumed): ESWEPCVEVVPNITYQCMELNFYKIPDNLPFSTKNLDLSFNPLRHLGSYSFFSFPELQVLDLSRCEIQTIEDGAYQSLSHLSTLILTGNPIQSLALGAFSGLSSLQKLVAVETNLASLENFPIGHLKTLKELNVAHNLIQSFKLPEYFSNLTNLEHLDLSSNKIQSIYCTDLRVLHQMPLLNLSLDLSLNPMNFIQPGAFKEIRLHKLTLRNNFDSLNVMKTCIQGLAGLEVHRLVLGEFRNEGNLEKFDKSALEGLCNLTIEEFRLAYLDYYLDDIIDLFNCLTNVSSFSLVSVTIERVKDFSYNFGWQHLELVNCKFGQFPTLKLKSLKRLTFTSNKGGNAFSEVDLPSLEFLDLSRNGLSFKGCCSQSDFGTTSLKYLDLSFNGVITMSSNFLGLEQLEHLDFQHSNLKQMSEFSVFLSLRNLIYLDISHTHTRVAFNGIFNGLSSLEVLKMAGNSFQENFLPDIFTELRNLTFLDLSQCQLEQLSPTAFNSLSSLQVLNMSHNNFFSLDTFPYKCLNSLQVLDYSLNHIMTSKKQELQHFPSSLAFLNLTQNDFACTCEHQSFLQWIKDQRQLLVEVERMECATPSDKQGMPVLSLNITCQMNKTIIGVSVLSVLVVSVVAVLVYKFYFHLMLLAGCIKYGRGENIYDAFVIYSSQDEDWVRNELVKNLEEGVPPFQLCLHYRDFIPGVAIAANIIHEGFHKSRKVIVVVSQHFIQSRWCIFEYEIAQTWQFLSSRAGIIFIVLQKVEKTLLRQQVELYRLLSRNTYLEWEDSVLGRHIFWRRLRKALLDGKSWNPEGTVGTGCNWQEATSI
# Chain of Toll-like receptor 4 (TLR4) (Q9Y6Y9 17-160 limits assumed, species assumed): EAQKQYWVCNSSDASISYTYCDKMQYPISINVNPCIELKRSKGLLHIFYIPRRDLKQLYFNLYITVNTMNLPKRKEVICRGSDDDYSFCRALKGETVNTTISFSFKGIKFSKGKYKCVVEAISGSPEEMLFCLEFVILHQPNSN
Molecule,antagonism of TLR4 signaling [1],reported aqueous solubility [2] [µg/mL],average bioavailability [3]
C=CCN1CC[C@]23c4c5ccc(O)c4O[C@H]2C(=O)CC[C@]3(O)[C@H]1C5 [(+)-naloxone],antagonize TLR4 signaling,,
O=C1CC[C@]2(O)[C@@H]3Cc4ccc(O)c5c4[C@]2(CCN3CC2CC2)[C@@H]1O5 [(+)-naltrexone],antagonize TLR4 signaling,,
C=C1CC[C@@]2(O)[C@H]3Cc4ccc(O)c5c4[C@@]2(CCN3CC2CC2)[C@H]1O5 [nalmefene],,140,
O=C1CC[C@@]2(O)[C@H]3Cc4ccc(O)c5c4[C@@]2(CCN3CC2CC2)[C@H]1O5 [naltrexone],,667,5-40%
(−)-nalmefene,antagonize TLR4 signaling,,
(−)-naloxone,antagonize TLR4 signaling,,
(−)-naltrexone,antagonize TLR4 signaling,,
